From ChEMBL document CHEMBL5143550, “Thiol- and Disulfide-Containing Vancomycin Derivatives Against Bacterial Resistance and Biofilm Formation” (2021)
≈ marks a conversion by molar mass, not a printed value.

Columns and labels:
Format in all cases: functional
Enterococcus faecalis [1] = test: Antibacterial activity against VanB-resistant Enterococcus faecalis ATCC 51299 assessed as inhibition of colony formation in BHIG medium incubated for 24 hrs by resazurin assay
Staphylococcus aureus [2] = test: Antibacterial activity against methicillin-resistant Staphylococcus aureus ATCC 43300 assessed as inhibition of bacterial growth by standard broth microdilution susceptibility method
Enterococcus faecalis [3] = test: Antibacterial activity against VanB-resistant Enterococcus faecalis ATCC 51299 assessed as inhibition of bacterial growth in BHIG medium incubated for 24 hrs by resazurin assay
Enterococcus gallinarum [4] = test: Antibacterial activity against VanC-resistant Enterococcus gallinarum ATCC 700221 assessed as inhibition of bacterial growth by standard broth microdilution susceptibility method
Enterococcus faecalis [5] = test: Antibacterial activity against VanB-resistant Enterococcus faecalis ATCC 51299 assessed as inhibition of bacterial growth by standard broth microdilution susceptibility method
Enterococcus faecalis [6] = test: Antibiofilm activity against VanB-resistant Enterococcus faecalis ATCC 51299 assessed as inhibition of biofilm formation in BHIG medium incubated for 24 hrs by resazurin assay
Enterococcus faecalis [7] = test: Antibiofilm activity against VanB-resistant Enterococcus faecalis ATCC 51299 assessed as inhibition of biofilm formation by measuring decrease in RFU in BHIG medium incubated for 24 hrs by resazurin assay
Enterococcus faecalis [8] = test: Antibiofilm activity against VanB-resistant Enterococcus faecalis ATCC 51299 assessed as inhibition of biofilm formation in BHIG medium incubated for 24 hrs by resazurin assay relative to vancomycin
Staphylococcus aureus [9] = test: Antibacterial activity against Staphylococcus aureus ATCC 25923 assessed as inhibition of bacterial growth by standard broth microdilution susceptibility method
Enterococcus faecium [10] = test: Potency index, ratio of vancomycin MIC to test compound MIC for antibacterial activity against VanA-resistant Enterococcus faecium MMX0485 assessed as inhibition of bacterial growth by standard broth microdilution susceptibility method
Staphylococcus aureus [11] = test: Antibacterial activity against heterogenous vancomycin-intermediate Staphylococcus aureus ATCC NRS24 assessed as inhibition of bacterial growth by standard broth microdilution susceptibility method
Streptococcus pneumoniae = test: Antibacterial activity against […] assessed as inhibition of bacterial growth by standard broth microdilution susceptibility method
Enterococcus gallinarum [12] = test: Potency index, ratio of vancomycin MIC to test compound MIC for antibacterial activity against VanC-resistant Enterococcus gallinarum ATCC 700221 assessed as inhibition of bacterial growth by standard broth microdilution susceptibility method
Clostridioides difficile = test: Antibacterial activity against Clostridium difficile ATCC 43255 assessed as inhibition of bacterial growth by standard broth microdilution susceptibility method
Moraxella catarrhalis = test: Antibacterial activity against Moraxella catarrhalis ATCC 8193 assessed as inhibition of bacterial growth by standard broth microdilution susceptibility method
Enterococcus faecalis [13] = test: Potency index, ratio of vancomycin MIC to test compound MIC for antibacterial activity against VanB-resistant Enterococcus faecalis ATCC 51299 assessed as inhibition of bacterial growth by standard broth microdilution susceptibility method
Staphylococcus aureus [14] = test: Antibacterial activity against vancomycin-intermediate Staphylococcus aureus ATCC NRS1 assessed as inhibition of bacterial growth by standard broth microdilution susceptibility method
Enterococcus faecium [15] = test: Antibacterial activity against VanA-resistant Enterococcus faecium MMX0485 assessed as inhibition of bacterial growth by standard broth microdilution susceptibility method
Staphylococcus aureus [16] = test: Potency index, ratio of vancomycin MIC to test compound MIC for antibacterial activity against heterogenous vancomycin-intermediate Staphylococcus aureus ATCC NRS24 assessed as inhibition of bacterial growth by standard broth microdilution susceptibility method
Staphylococcus aureus [17] = test: Potency index, ratio of vancomycin MIC to test compound MIC for antibacterial activity against vancomycin-intermediate Staphylococcus aureus ATCC NRS1 assessed as inhibition of bacterial growth by standard broth microdilution susceptibility method

CN[C@H](CC(C)C)C(=O)N[C@H]1C(=O)N[C@@H](CC(N)=O)C(=O)N[C@H]2C(=O)N[C@H]3C(=O)N[C@H](C(=O)N[C@H](C(=O)NCCS)c4cc(O)cc(O)c4-c4cc3ccc4O)[C@H](O)c3ccc(c(Cl)c3)Oc3cc2cc(c3O[C@@H]2O[C@H](CO)[C@@H](O)[C@H](O)[C@H]2O[C@H]2C[C@](C)(N)[C@H](O)[C@H](C)O2)Oc2ccc(cc2Cl)[C@H]1O
Activity (Enterococcus faecalis [1]): 4 µg/mL
MIC (Staphylococcus aureus [2]): 4 µg/mL (≈ 2.65 µM)
inhibition (INH) (Enterococcus faecalis [3]): 100%
MIC (Enterococcus gallinarum [4]): 2 µg/mL (≈ 1.33 µM)
MIC (Enterococcus faecalis [5]): 2 µg/mL (≈ 1.33 µM)
MBIC (Enterococcus faecalis [6]): 4 µg/mL
inhibition (INH) (Enterococcus faecalis [7]): 99%
Ratio (Enterococcus faecalis [8]): 16
MIC (Staphylococcus aureus [9]): 4 µg/mL (≈ 2.65 µM)

CN[C@H](CC(C)C)C(=O)N[C@H]1C(=O)N[C@@H](CC(N)=O)C(=O)N[C@H]2C(=O)N[C@H]3C(=O)N[C@H](C(=O)N[C@H](C(=O)NCCSSCCCCC[N+](C)(C)C)c4cc(O)cc(O)c4-c4cc3ccc4O)[C@H](O)c3ccc(c(Cl)c3)Oc3cc2cc(c3O[C@@H]2O[C@H](CO)[C@@H](O)[C@H](O)[C@H]2O[C@H]2C[C@](C)(N)[C@H](O)[C@H](C)O2)Oc2ccc(cc2Cl)[C@H]1O
Ratio (Enterococcus faecium [10]): 8
Activity (Enterococcus faecalis [1]): 16 µg/mL
MIC (Staphylococcus aureus [2]): 0.5 µg/mL
MIC (Staphylococcus aureus [11]): > 32 µg/mL
MIC (Streptococcus pneumoniae): 0.06 µg/mL
inhibition (INH) (Enterococcus faecalis [3]): 97%
Ratio (Enterococcus gallinarum [12]): 8
MIC (Enterococcus gallinarum [4]): 4 µg/mL
MIC (Enterococcus faecalis [5]): 8 µg/mL
MIC (Clostridioides difficile): ≤ 0.015 µg/mL
MIC (Moraxella catarrhalis): 2 µg/mL
MBIC (Enterococcus faecalis [6]): 16 µg/mL
inhibition (INH) (Enterococcus faecalis [7]): 87%
Ratio (Enterococcus faecalis [13]): 8
MIC (Staphylococcus aureus [14]): 1 µg/mL
MIC (Enterococcus faecium [15]): 16 µg/mL
MIC (Staphylococcus aureus [9]): 1 µg/mL

CCCCCCSSCCNC(=O)[C@H]1NC(=O)[C@H]2NC(=O)[C@H](NC(=O)[C@@H]3NC(=O)[C@H](CC(N)=O)NC(=O)[C@H](NC(=O)[C@@H](CC(C)C)NC)[C@H](O)c4ccc(c(Cl)c4)Oc4cc3cc(c4O[C@@H]3O[C@H](CO)[C@@H](O)[C@H](O)[C@H]3O[C@H]3C[C@](C)(N)[C@H](O)[C@H](C)O3)Oc3ccc(cc3Cl)[C@H]2O)c2ccc(O)c(c2)-c2c(O)cc(O)cc21
Ratio (Enterococcus faecium [10]): 16
Activity (Enterococcus faecalis [1]): 2 µg/mL
MIC (Staphylococcus aureus [2]): 0.12 µg/mL (≈ 0.0739 µM)
Ratio (Staphylococcus aureus [16]): 16
MIC (Staphylococcus aureus [11]): 0.5 µg/mL (≈ 0.308 µM)
MIC (Streptococcus pneumoniae): 0.06 µg/mL (≈ 0.0369 µM)
inhibition (INH) (Enterococcus faecalis [3]): 100%
MIC (Enterococcus gallinarum [4]): 4 µg/mL (≈ 2.46 µM)
MIC (Enterococcus faecalis [5]): 0.25 µg/mL (≈ 0.154 µM)
MIC (Clostridioides difficile): 0.5 µg/mL (≈ 0.308 µM)
Ratio (Staphylococcus aureus [17]): 16
MIC (Moraxella catarrhalis): 2 µg/mL (≈ 1.23 µM)
MBIC (Enterococcus faecalis [6]): 2 µg/mL
inhibition (INH) (Enterococcus faecalis [7]): 100%
Ratio (Enterococcus faecalis [13]): 16
MIC (Staphylococcus aureus [14]): 0.5 µg/mL (≈ 0.308 µM)
MIC (Enterococcus faecium [15]): 16 µg/mL (≈ 9.85 µM)
MIC (Staphylococcus aureus [9]): 0.12 µg/mL (≈ 0.0739 µM)

CN[C@H](CC(C)C)C(=O)N[C@H]1C(=O)N[C@@H](CC(N)=O)C(=O)N[C@H]2C(=O)N[C@H]3C(=O)N[C@H](C(=O)N[C@H](C(=O)NCCSSCC[N+](C)(C)C)c4cc(O)cc(O)c4-c4cc3ccc4O)[C@H](O)c3ccc(c(Cl)c3)Oc3cc2cc(c3O[C@@H]2O[C@H](CO)[C@@H](O)[C@H](O)[C@H]2O[C@H]2C[C@](C)(N)[C@H](O)[C@H](C)O2)Oc2ccc(cc2Cl)[C@H]1O
Ratio (Enterococcus faecium [10]): 8
Activity (Enterococcus faecalis [1]): 16 µg/mL
MIC (Staphylococcus aureus [2]): 0.5 µg/mL
MIC (Staphylococcus aureus [11]): > 32 µg/mL
MIC (Streptococcus pneumoniae): 0.25 µg/mL
inhibition (INH) (Enterococcus faecalis [3]): 100%
Ratio (Enterococcus gallinarum [12]): 8
MIC (Enterococcus gallinarum [4]): 4 µg/mL
MIC (Enterococcus faecalis [5]): 16 µg/mL
MIC (Clostridioides difficile): ≤ 0.015 µg/mL
MIC (Moraxella catarrhalis): 2 µg/mL
MBIC (Enterococcus faecalis [6]): 16 µg/mL
inhibition (INH) (Enterococcus faecalis [7]): 91%
Ratio (Enterococcus faecalis [13]): 8
MIC (Staphylococcus aureus [14]): 0.5 µg/mL
MIC (Enterococcus faecium [15]): 32 µg/mL
MIC (Staphylococcus aureus [9]): 1 µg/mL

CCCCCCCCCCCSSCCNC(=O)[C@H]1NC(=O)[C@H]2NC(=O)[C@H](NC(=O)[C@@H]3NC(=O)[C@H](CC(N)=O)NC(=O)[C@H](NC(=O)[C@@H](CC(C)C)NC)[C@H](O)c4ccc(c(Cl)c4)Oc4cc3cc(c4O[C@@H]3O[C@H](CO)[C@@H](O)[C@H](O)[C@H]3O[C@H]3C[C@](C)(N)[C@H](O)[C@H](C)O3)Oc3ccc(cc3Cl)[C@H]2O)c2ccc(O)c(c2)-c2c(O)cc(O)cc21
Ratio (Enterococcus faecium [10]): 16
Activity (Enterococcus faecalis [1]): 2 µg/mL
MIC (Staphylococcus aureus [2]): 1 µg/mL (≈ 0.59 µM)
Ratio (Staphylococcus aureus [16]): 16
MIC (Staphylococcus aureus [11]): 1 µg/mL (≈ 0.59 µM)
MIC (Streptococcus pneumoniae): 0.25 µg/mL (≈ 0.148 µM)
inhibition (INH) (Enterococcus faecalis [3]): 99%
MIC (Enterococcus gallinarum [4]): 4 µg/mL (≈ 2.36 µM)
MIC (Enterococcus faecalis [5]): 0.25 µg/mL (≈ 0.148 µM)
MIC (Clostridioides difficile): 0.12 µg/mL (≈ 0.0708 µM)
Ratio (Staphylococcus aureus [17]): 16
MIC (Moraxella catarrhalis): 0.5 µg/mL (≈ 0.295 µM)
MBIC (Enterococcus faecalis [6]): 2 µg/mL
inhibition (INH) (Enterococcus faecalis [7]): 92%
Ratio (Enterococcus faecalis [13]): 16
MIC (Staphylococcus aureus [14]): 0.5 µg/mL (≈ 0.295 µM)
MIC (Enterococcus faecium [15]): 2 µg/mL (≈ 1.18 µM)
MIC (Staphylococcus aureus [9]): 1 µg/mL (≈ 0.59 µM)

CN[C@H](CC(C)C)C(=O)N[C@H]1C(=O)N[C@@H](CC(N)=O)C(=O)N[C@H]2C(=O)N[C@H]3C(=O)N[C@H](C(=O)N[C@H](C(=O)NCCSSCCCCCCCCCCC[N+](C)(C)C)c4cc(O)cc(O)c4-c4cc3ccc4O)[C@H](O)c3ccc(c(Cl)c3)Oc3cc2cc(c3O[C@@H]2O[C@H](CO)[C@@H](O)[C@H](O)[C@H]2O[C@H]2C[C@](C)(N)[C@H](O)[C@H](C)O2)Oc2ccc(cc2Cl)[C@H]1O
Ratio (Enterococcus faecium [10]): 8
Activity (Enterococcus faecalis [1]): 4 µg/mL
MIC (Staphylococcus aureus [2]): 0.5 µg/mL
MIC (Staphylococcus aureus [11]): 8 µg/mL
MIC (Streptococcus pneumoniae): 0.12 µg/mL
inhibition (INH) (Enterococcus faecalis [3]): 98%
Ratio (Enterococcus gallinarum [12]): 8
MIC (Enterococcus gallinarum [4]): 2 µg/mL
MIC (Enterococcus faecalis [5]): 2 µg/mL
MIC (Clostridioides difficile): 1 µg/mL
MIC (Moraxella catarrhalis): 1 µg/mL
MBIC (Enterococcus faecalis [6]): 4 µg/mL
inhibition (INH) (Enterococcus faecalis [7]): 84%
Ratio (Enterococcus faecalis [13]): 8
MIC (Staphylococcus aureus [14]): 0.25 µg/mL
Ratio (Enterococcus faecalis [8]): 16
MIC (Enterococcus faecium [15]): 16 µg/mL
MIC (Staphylococcus aureus [9]): 1 µg/mL

CN[C@H](CC(C)C)C(=O)N[C@H]1C(=O)N[C@@H](CC(N)=O)C(=O)N[C@H]2C(=O)N[C@H]3C(=O)N[C@H](C(=O)N[C@H](C(=O)NCCCS)c4cc(O)cc(O)c4-c4cc3ccc4O)[C@H](O)c3ccc(c(Cl)c3)Oc3cc2cc(c3O[C@@H]2O[C@H](CO)[C@@H](O)[C@H](O)[C@H]2O[C@H]2C[C@](C)(N)[C@H](O)[C@H](C)O2)Oc2ccc(cc2Cl)[C@H]1O
Activity (Enterococcus faecalis [1]): 4 µg/mL
MIC (Staphylococcus aureus [2]): 4 µg/mL (≈ 2.63 µM)
MIC (Staphylococcus aureus [11]): > 32 µg/mL
MIC (Streptococcus pneumoniae): ≤ 0.03 µg/mL
inhibition (INH) (Enterococcus faecalis [3]): 100%
MIC (Enterococcus gallinarum [4]): 1 µg/mL (≈ 0.657 µM)
MIC (Enterococcus faecalis [5]): 4 µg/mL (≈ 2.63 µM)
MIC (Clostridioides difficile): 0.12 µg/mL (≈ 0.0788 µM)
MIC (Moraxella catarrhalis): 16 µg/mL (≈ 10.5 µM)
MBIC (Enterococcus faecalis [6]): 4 µg/mL
inhibition (INH) (Enterococcus faecalis [7]): 95%
MIC (Staphylococcus aureus [14]): 8 µg/mL (≈ 5.25 µM)
Ratio (Enterococcus faecalis [8]): 16
MIC (Enterococcus faecium [15]): 1 µg/mL (≈ 0.657 µM)
MIC (Staphylococcus aureus [9]): 4 µg/mL (≈ 2.63 µM)
